Test results: BindingDB's records for doi:10.1111/cbdd.12787 (Shandong University, 2016)

Legend:
Experiment in all cases: In vitro HDACs Inhibition Fluorescence Assay
Histone deacetylase 4 = Histone deacetylase 4 (Homo sapiens, UniProt P56524)
Description: (§1) Afterincubation at 37 °C for 10 min, 40 μL of fluorogenic substrate (Boc-Lys(Ac)-AMC for HeLa nuclear extracts; Ac-Leu- GlyLyS(Ac)-AMC for HDAC1, HDAC6, and HDAC11; Ac-Leu-GlyLyS(Tfa)-AMC for HDAC4 and HDAC8) was added, and then, the mixture was incubated at 37 °C for 30 min. The mixture was stopped by addition of 100 μL of developer containing trypsin and TSA afterward. Over the next incubation at 37 °C for 20 min, fluorescence intensity was measured using a microplate reader at excitation and emission wavelengths of 390 and 460 nm, respectively.

Histone deacetylase 11 = molecular target: T1, Histone deacetylase 11 (Homo sapiens, UniProt Q96DB2)
T1 sequence (Q96DB2 whole entry): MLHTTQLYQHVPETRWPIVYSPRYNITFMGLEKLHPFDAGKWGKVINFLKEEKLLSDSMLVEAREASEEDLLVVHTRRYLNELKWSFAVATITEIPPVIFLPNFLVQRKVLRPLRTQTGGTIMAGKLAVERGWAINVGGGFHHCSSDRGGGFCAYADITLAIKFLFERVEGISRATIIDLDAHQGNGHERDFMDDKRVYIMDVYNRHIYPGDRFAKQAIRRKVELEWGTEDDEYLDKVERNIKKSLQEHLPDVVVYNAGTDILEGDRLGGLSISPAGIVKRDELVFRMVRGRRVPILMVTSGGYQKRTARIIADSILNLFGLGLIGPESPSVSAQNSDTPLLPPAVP
Description: as §1

Histone deacetylase 1 = Histone deacetylase 1 (Homo sapiens, UniProt Q13547)
Histone deacetylase 1, sequence (Q13547 whole entry): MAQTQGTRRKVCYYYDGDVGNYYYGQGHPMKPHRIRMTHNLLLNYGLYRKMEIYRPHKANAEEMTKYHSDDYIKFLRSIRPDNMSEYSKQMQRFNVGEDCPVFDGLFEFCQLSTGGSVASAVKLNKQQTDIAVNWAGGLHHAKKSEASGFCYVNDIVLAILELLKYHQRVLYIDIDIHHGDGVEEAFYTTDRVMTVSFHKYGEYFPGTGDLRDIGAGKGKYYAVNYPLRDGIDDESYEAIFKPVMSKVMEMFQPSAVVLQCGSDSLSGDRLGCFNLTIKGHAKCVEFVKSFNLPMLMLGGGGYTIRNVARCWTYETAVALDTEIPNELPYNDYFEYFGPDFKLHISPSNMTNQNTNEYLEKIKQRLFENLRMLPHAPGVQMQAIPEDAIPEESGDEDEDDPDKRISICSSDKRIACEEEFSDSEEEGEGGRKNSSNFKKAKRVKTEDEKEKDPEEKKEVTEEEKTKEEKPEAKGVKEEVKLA
Description: as §1

Histone deacetylase 6 = molecular target: T2, Histone deacetylase 6 (Homo sapiens, UniProt Q9UBN7)
T2 sequence (Q9UBN7 whole entry): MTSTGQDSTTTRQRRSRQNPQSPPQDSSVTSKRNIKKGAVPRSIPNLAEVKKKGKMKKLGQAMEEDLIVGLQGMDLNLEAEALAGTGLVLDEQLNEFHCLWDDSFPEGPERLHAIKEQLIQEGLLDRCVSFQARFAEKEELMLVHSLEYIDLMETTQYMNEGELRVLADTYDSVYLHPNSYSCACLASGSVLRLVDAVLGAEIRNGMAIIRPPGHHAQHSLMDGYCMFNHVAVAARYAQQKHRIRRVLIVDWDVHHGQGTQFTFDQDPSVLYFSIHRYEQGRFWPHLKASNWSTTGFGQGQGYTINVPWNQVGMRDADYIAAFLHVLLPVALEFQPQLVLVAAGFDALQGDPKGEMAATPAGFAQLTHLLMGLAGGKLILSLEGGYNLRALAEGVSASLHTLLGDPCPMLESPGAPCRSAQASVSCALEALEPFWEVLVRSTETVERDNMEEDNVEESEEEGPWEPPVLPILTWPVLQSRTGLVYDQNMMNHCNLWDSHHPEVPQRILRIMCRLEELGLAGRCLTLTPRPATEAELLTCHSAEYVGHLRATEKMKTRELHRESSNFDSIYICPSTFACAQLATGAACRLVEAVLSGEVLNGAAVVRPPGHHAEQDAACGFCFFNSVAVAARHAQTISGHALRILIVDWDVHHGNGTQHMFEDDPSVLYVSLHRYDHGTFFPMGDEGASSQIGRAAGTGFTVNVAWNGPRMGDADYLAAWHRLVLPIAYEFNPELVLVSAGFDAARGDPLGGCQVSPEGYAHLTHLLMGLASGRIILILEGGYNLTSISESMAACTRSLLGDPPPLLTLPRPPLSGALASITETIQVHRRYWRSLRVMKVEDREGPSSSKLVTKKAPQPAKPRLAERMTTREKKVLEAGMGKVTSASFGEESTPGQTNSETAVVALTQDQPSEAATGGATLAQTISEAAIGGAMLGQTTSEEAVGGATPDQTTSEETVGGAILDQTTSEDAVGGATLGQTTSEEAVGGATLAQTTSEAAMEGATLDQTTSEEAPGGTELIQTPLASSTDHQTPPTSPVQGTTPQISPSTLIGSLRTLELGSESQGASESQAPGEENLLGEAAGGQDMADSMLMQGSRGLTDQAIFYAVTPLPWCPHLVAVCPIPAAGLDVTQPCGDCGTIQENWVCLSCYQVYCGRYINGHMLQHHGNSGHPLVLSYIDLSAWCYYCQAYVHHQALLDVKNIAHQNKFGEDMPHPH
Description: as §1

Histone deacetylase 8 = molecular target: T3, Histone deacetylase 8 (Homo sapiens, UniProt Q9BY41)
T3 sequence (Q9BY41 whole entry): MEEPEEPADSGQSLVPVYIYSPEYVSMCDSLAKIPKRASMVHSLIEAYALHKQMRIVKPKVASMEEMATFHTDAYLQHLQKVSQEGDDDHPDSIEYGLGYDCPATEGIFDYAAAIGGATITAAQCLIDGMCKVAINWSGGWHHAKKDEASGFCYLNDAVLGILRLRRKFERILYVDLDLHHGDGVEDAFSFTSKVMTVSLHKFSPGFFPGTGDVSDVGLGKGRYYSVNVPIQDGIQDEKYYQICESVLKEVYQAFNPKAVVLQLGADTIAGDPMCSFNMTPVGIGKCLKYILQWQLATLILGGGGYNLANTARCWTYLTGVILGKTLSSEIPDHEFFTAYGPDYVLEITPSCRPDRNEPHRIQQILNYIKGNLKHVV
Description: as §1

Histone deacetylase 4, sequence (P56524 whole entry): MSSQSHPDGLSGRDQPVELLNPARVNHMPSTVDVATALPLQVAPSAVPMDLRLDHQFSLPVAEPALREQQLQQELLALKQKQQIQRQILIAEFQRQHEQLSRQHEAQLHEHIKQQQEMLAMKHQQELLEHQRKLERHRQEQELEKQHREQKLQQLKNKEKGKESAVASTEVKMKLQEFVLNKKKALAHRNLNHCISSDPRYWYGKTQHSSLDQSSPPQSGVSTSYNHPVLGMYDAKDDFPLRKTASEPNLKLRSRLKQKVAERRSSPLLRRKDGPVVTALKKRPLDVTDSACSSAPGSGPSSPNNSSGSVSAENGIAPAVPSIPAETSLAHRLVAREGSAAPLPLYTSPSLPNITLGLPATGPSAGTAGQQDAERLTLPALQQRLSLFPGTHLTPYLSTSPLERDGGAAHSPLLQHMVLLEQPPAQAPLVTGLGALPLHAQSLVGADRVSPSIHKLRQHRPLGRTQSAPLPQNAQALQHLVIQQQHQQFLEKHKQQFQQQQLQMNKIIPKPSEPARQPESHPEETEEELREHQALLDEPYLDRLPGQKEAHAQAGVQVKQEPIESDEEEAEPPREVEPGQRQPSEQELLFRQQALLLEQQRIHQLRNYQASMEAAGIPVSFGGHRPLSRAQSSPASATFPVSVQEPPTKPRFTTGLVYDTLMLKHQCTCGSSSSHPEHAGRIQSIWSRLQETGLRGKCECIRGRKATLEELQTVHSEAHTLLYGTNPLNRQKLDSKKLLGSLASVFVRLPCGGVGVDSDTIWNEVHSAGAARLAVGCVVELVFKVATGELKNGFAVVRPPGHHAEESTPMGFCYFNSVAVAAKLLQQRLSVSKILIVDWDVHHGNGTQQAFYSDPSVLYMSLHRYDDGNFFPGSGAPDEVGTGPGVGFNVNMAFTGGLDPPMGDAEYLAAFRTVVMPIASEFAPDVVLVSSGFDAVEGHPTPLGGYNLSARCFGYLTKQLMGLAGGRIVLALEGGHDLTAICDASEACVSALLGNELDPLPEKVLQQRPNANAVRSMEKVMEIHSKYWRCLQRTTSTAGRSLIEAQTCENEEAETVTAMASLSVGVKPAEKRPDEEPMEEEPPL

Structure (SMILES)	IC50 (Histone deacetylase 4) [nM]	IC50 (Histone deacetylase 11) [nM]	IC50 (Histone deacetylase 1) [nM]	IC50 (Histone deacetylase 6) [nM]	IC50 (Histone deacetylase 8) [nM]
O=C(/C=C/c1cccc(S(=O)(=O)Nc2ccccc2)c1)NO [Belinostat]	9850	–	–	–	–
O=C(/C=C/c1cccc(S(=O)(=O)N[C@H](C(=O)Nc2cccc3ccccc23)c2ccccc2)c1)NO [(S,E)-N-hydroxy-3-(3-(N-(2-(naphthalen-1-ylamino)-2-oxo-1-phenylethyl)sulfamoyl)phenyl)acrylamide (10s)]	23000	3850	93	80	659
